As usually defined, the IC50 is the concentration that gives 50% inhibition.

The text below walks through data of patent publication US11021493B2, “1,4-thiazine dioxide and 1,2,4-thiadiazine dioxide derivatives as beta-secretase inhibitors and methods of use” (AMGEN INC., priority 2016, dated 2021).

The target in assay [1] is Cathepsin D (CatD) (Homo sapiens (Human), UniProt P07339). Description: In vitro enzymatic Cathepsin D (CatD) FRET assay. Type of assay: biochemical. The following applies: read-out: Cat D Enzyme IC50.
The target in assay [2] is T1, BACE1 (Homo sapiens (Human), UniProt P56817). Description: In vitro enzymatic BACE1 FRET assay. Type of assay: biochemical. The following applies: read-out: BACE1 Enzyme IC50.
Target sequence in this assay (P56817 46-501): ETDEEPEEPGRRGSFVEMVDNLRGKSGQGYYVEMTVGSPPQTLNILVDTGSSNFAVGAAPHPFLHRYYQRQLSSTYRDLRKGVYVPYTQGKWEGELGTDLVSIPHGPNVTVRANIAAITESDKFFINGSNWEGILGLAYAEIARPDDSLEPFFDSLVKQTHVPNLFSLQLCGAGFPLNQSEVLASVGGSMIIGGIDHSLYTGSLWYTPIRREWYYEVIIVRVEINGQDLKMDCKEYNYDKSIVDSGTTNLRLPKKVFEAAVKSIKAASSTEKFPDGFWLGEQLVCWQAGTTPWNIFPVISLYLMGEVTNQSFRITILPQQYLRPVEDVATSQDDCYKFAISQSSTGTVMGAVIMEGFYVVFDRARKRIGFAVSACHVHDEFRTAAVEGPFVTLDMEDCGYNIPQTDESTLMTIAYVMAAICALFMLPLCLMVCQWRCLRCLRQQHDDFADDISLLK
Assay [3] concerns the target T1, BACE1. Description: In vitro BACE1 cell-based assay (Aβ40 in conditioned medium of cells stably expressing APP, HTRF). Conditions: Aβ40 in conditioned media after 24 h incubation. A general note: TR-FRET usually uses a lanthanide donor and a delayed reading to cut background.
Target sequence in this assay (P56817 46-501, species assumed): as the sequence (P56817 46-501) above
In assay [4] the target is human recombinant BACE2 (Homo sapiens (Human), UniProt Q9Y5Z0). In words: In vitro enzymatic BACE2 FRET assay. Type of assay: biochemical. The following applies: read-out: BACE2 Enzyme IC50.
Sequence of human recombinant BACE2 (Q9Y5Z0 63-518): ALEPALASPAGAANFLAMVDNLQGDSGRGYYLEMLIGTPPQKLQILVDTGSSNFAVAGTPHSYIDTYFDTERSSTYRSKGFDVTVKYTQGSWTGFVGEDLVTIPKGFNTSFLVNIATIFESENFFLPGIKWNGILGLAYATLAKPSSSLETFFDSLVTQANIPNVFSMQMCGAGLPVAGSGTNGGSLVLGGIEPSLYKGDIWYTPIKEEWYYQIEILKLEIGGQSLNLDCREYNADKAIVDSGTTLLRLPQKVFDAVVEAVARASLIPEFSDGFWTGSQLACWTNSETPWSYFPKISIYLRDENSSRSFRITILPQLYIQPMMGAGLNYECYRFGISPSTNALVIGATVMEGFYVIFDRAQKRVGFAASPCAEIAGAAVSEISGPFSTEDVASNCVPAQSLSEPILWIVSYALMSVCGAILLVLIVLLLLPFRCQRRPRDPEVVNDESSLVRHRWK

Sequence of Cathepsin D (CatD) (P07339 65-412, species assumed): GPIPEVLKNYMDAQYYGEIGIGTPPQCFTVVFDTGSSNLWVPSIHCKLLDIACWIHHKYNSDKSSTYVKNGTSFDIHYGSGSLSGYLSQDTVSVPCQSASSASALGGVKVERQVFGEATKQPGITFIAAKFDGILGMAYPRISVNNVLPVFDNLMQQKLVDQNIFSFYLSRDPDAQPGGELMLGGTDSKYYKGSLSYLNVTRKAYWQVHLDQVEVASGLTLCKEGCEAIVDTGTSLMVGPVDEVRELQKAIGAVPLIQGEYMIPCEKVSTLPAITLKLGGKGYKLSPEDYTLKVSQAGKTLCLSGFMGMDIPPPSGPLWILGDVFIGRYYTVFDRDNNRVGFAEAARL

With `CN1C(N)=N[C@](C)(c2cc(/C=C(\F)c3cnc(OCC4COC4)cn3)ccc2F)CS1(=O)=O` [Example 179, (R,Z)-3-amino-5-(2-fluoro-5-(2-fluoro-2-(5-(oxetan-3-ylmethoxy)pyrazin-2-yl)vinyl)phenyl)-2,5-dimethyl-5,6-dihydro-2H-1,2,4-thiadiazine 1,1-dioxide], the IC50 in assay [1] stood at 43000 nM; in assay [2], 176 nM; in assay [3], 120 nM; in assay [4], 217 nM.
On the same counts, the results for `C=CCOc1cnc(/C(F)=C/c2ccc(F)c([C@@]3(C)N=C(N)[C@@]4(CF)CC[C@@H]3S4(=O)=O)c2)cn1` [Example 125, (1R,4R,5S)-4-(5-((Z)-2-(5-(allyloxy)pyrazin-2-yl)-2-fluorovinyl)-2-fluorophenyl)-2-amino-1-(fluoromethyl)-4-methyl-8-thia-3-azabicyclo[3.2.1]oct-2-ene 8,8-dioxide] are 91200 nM, 48 nM, 446 nM and 163 nM.
The matching figures for `CN1C(N)=N[C@](C)(c2cc(/C=C(\F)c3ccc(Br)cn3)ccc2F)CS1(=O)=O` [Example 247, (R,Z)-3-amino-5-(5-(2-(5-bromopyridin-2-yl)-2-fluorovinyl)-2-fluorophenyl)-2,5-dimethyl-5,6-dihydro-2H-1,2,4-thiadiazine 1,1-dioxide]: 11000 nM, 6 nM, 28 nM and 7 nM.
In the case of `COCCOc1cnc(/C(F)=C/c2ccc(F)c([C@@]3(C)N=C(N)[C@@]4(CF)CC[C@@H]3S4(=O)=O)c2)cn1` [Example 130, (1R,4R,5S)-2-amino-4-(2-fluoro-5-((Z)-2-fluoro-2-(5-(2-methoxyethoxy)pyrazin-2-yl)vinyl)phenyl)-1-(fluoromethyl)-4-methyl-8-thia-3-azabicyclo[3.2.1]oct-2-ene 8,8-dioxide], the IC50 in assay [1] is 173000 nM; in assay [2], 33 nM; in assay [3], 60 nM; in assay [4], 163 nM.
On the same counts, the results for `CC1(C)C(N)=N[C@](C)(c2cc(/C=C(\F)c3cnc(Oc4ccccc4)cn3)ccc2F)CS1(=O)=O` [Example 211, (R,Z)-5-amino-3-(2-fluoro-5-(2-fluoro-2-(5-phenoxypyrazin-2-yl)vinyl)phenyl)-3,6,6-trimethyl-3,6-dihydro-2H-1,4-thiazine 1,1-dioxide] are 59500 nM, 349 nM, 1820 nM and 333 nM.
The matching figures for `CC1(C)C(N)=N[C@](C)(c2cc(/C=C(\F)c3ccc(C(F)(F)F)cn3)ccc2F)CS1(=O)=O` [Example 265, (R,Z)-5-amino-3-(2-fluoro-5-(2-fluoro-2-(5-(trifluoromethyl)pyridin-2-yl)vinyl)phenyl)-3,6,6-trimethyl-3,6-dihydro-2H-1,4-thiazine 1,1-dioxide]: 89400 nM, 8 nM, 10 nM and 43 nM.
On the same counts, the results for `C[C@]1(c2cc(/C=C(\F)c3cnc(OCC(F)(F)C(F)F)cn3)ccc2F)N=C(N)[C@@]2(CF)CC[C@@H]1S2(=O)=O` [Example 120, (1R,4R,5S)-2-amino-4-(2-fluoro-5-((Z)-2-fluoro-2-(5-(2,2,3,3-tetrafluoropropoxy)pyrazin-2-yl)vinyl)phenyl)-1-(fluoromethyl)-4-methyl-8-thia-3-azabicyclo[3.2.1]oct-2-ene 8,8-dioxide] are more than 400000 nM, 37 nM, 542 nM and 258 nM.
As for `CN1C(N)=N[C@](C)(c2cc(/C=C(\F)c3ccc(C#CC4CC4)cn3)ccc2F)CS1(=O)=O` [Example 251, (R,Z)-3-amino-5-(5-(2-(5-(cyclopropylethynyl)pyridin-2-yl)-2-fluorovinyl)-2-fluorophenyl)-2,5-dimethyl-5,6-dihydro-2H-1,2,4-thiadiazine 1,1-dioxide], the IC50 in assay [1] is 33800 nM; in assay [2], 7 nM; in assay [3], 110 nM; in assay [4], 36 nM.
As for `CN1C(N)=N[C@](C)(c2cc(/C=C(\F)c3ccc(OC(F)(F)F)cn3)ccc2F)CS1(=O)=O` [Example 258, (R,Z)-3-amino-5-(2-fluoro-5-(2-fluoro-2-(5-(trifluoromethoxy)pyridin-2-yl)vinyl)phenyl)-2,5-dimethyl-5,6-dihydro-2H-1,2,4-thiadiazine 1,1-dioxide], the IC50 was 54400 nM in assay [1], 6 nM in assay [2], 33 nM in assay [3] and 40 nM in assay [4].
For `CN1C(N)=N[C@](C)(c2cc(/C=C(\F)c3cnc(OCC(F)(F)F)cn3)ccc2F)CS1(=O)=O` [Example 117, (R,Z)-3-amino-5-(2-fluoro-5-(2-fluoro-2-(5-(2,2,2-trifluoroethoxy)pyrazin-2-yl)vinyl)phenyl)-2,5-dimethyl-5,6-dihydro-2H-1,2,4-thiadiazine 1,1-dioxide], the IC50 in assay [1] came out at 29100 nM; in assay [2], 23 nM; in assay [3], 148 nM; in assay [4], 186 nM.
For `COC[C@H](C)Oc1cnc(/C(F)=C/c2ccc(F)c([C@@]3(C)N=C(N)[C@@]4(CF)CC[C@@H]3S4(=O)=O)c2)cn1` [Example 131, (1R,4R,5S)-2-amino-4-(2-fluoro-5-((Z)-2-fluoro-2-(5-(((S)-1-methoxypropan-2-yl)oxy)pyrazin-2-yl)vinyl)phenyl)-1-(fluoromethyl)-4-methyl-8-thia-3-azabicyclo[3.2.1]oct-2-ene 8,8-dioxide], the IC50 is more than 400000 nM in assay [1], 13 nM in assay [2], 97 nM in assay [3] and 104 nM in assay [4].
The matching figures for `COc1cnc(/C(F)=C/c2ccc(F)c([C@]3(C)CS(=O)(=O)C(C)(C)C(N)=N3)c2)cn1` [Example 263, (R,Z)-5-amino-3-(2-fluoro-5-(2-fluoro-2-(5-methoxypyrazin-2-yl)vinyl)phenyl)-3,6,6-trimethyl-3,6-dihydro-2H-1,4-thiazine 1,1-dioxide]: 237000 nM, 189 nM, 133 nM and 190 nM.
On the same counts, the results for `Cc1cc(C#N)cnc1/C(F)=C/c1cc(F)c(F)c([C@]2(C)CS(=O)(=O)N(C)C(N)=N2)c1` [Example 275, (R,Z)-6-(2-(3-(3-amino-2,5-dimethyl-1,1-dioxido-5,6-dihydro-2H-1,2,4-thiadiazin-5-yl)-4,5-difluorophenyl)-1-fluorovinyl)-5-methylnicotinonitrile] are 55900 nM, 1 nM, 14 nM and 9 nM.
On the same counts, the results for `CC1(C)C(N)=N[C@](C)(c2cc(/C=C(\F)c3cnc(C#N)cn3)ccc2F)CS1(=O)=O` [Example 170, (R,Z)-5-(2-(3-(5-amino-3,6,6-trimethyl-1,1-dioxido-3,6-dihydro-2H-1,4-thiazin-3-yl)-4-fluorophenyl)-1-fluorovinyl)pyrazine-2-carbonitrile] are 645000 nM, 2 nM, 5 nM and 17 nM.
For the compound `CN1C(N)=N[C@](C)(c2cc(/C=C(\F)c3cc4cc(Cl)ccc4cn3)ccc2F)CS1(=O)=O` [Example 260, (5R)-5-(5-((Z)-2-(6-chloro-3-isoquinolinyl)-2-fluoroethenyl)-2-fluorophenyl)-2,5-dimethyl-5,6-dihydro-2H-1,2,4-thiadiazin-3-amine 1,1-dioxide], the IC50 came to 72500 nM in assay [1], 552 nM in assay [2], 4180 nM in assay [3] and 112 nM in assay [4].
In the case of `CC1(C)C(N)=N[C@](C)(c2cc(/C=C(\F)c3cnc(OCc4ccccc4)cn3)cnc2F)CS1(=O)=O` [Example 209, (R,Z)-5-amino-3-(5-(2-(5-(benzyloxy)pyrazin-2-yl)-2-fluorovinyl)-2-fluoropyridin-3-yl)-3,6,6-trimethyl-3,6-dihydro-2H-1,4-thiazine 1,1-dioxide], the IC50 in assay [1] is 46500 nM; in assay [2], 124 nM; in assay [3], 2520 nM; in assay [4], 311 nM.
On the same counts, the results for `Cc1cc(COc2cnc(/C(F)=C/c3ccc(F)c([C@@]4(C)N=C(N)N(C)S(=O)(=O)C45CC5)c3)cn2)no1` [Example 162, (8R)-8-(2-fluoro-5-((Z)-2-fluoro-2-(5-((5-methyl-3-isoxazolyl)methoxy)-2-pyrazinyl)ethenyl)phenyl)-5,8-dimethyl-4-thia-5,7-diazaspiro[2.5]oct-6-en-6-amine 4,4-dioxide] are 15700 nM, 65 nM, 168 nM and 732 nM.
For the compound `C#CCOc1cnc(/C(F)=C/c2ccc(F)c([C@@]3(C)N=C(N)[C@@]4(CF)CC[C@@H]3S4(=O)=O)c2)cn1` [Example 108, (1R,4R,5S)-2-amino-4-(2-fluoro-5-((Z)-2-fluoro-2-(5-(prop-2-yn-1-yloxy)pyrazin-2-yl)vinyl)phenyl)-1-(fluoromethyl)-4-methyl-8-thia-3-azabicyclo[3.2.1]oct-2-ene 8,8-dioxide], the IC50 turned out to be 145000 nM in assay [1], 3 nM in assay [2], 6 nM in assay [3] and 57 nM in assay [4].
The matching figures for `C#CCOc1cnc(/C(F)=C/c2ccc(F)c([C@@]3(C)N=C(N)N(C)S(=O)(=O)C34CC4)c2)cn1` [Example 138, (8R)-8-(2-fluoro-5-((Z)-2-fluoro-2-(5-(2-propyn-1-yloxy)-2-pyrazinyl)ethenyl)phenyl)-5,8-dimethyl-4-thia-5,7-diazaspiro[2.5]oct-6-en-6-amine 4,4-dioxide]: 125000 nM, 16 nM, 78 nM and 622 nM.
